From patent publication US8969294B2 (Istituto di Recerche di Biologia Molecolare P. Angeletti …, priority 2008, dated 2015)
Where two headings read alike, the source gives them in different places. Numbered stars: 1 amine (or outer) side, 2 acyl side, 3 side chain; on linkers, the order of the positions; unused ones are H or OH. Square brackets hold non-standard residues; d marks the D form. Side chains are listed from the residue outwards. Peptide text beside a SMILES is read from it. * marks the point of attachment. γGlu = O=C(O)[C@H](CCC(=O)[*:2])N[*:1]; Palmitoyl = CCCCCCCCCCCCCCCC(=O)*; Aib = CC(C)(N)C(=O)O

Target: glucagon receptor (Homo sapiens, UniProt P47871)
Assay: Functional assay, cAMP synthesis: luciferase reporter in HEK293 cells co-transfected with glucagon receptor
[1] = EC50 at Glucagon Receptor, Table 31
[2] = EC50 at the Glucagon receptor, Table 21
[3] = EC50 at Glucagon Receptor (20% human plasma), Table 28, 20% human plasma
[4] = EC50 at Glucagon Receptor, Table 28

glucagon receptor, sequence (P47871 26-477): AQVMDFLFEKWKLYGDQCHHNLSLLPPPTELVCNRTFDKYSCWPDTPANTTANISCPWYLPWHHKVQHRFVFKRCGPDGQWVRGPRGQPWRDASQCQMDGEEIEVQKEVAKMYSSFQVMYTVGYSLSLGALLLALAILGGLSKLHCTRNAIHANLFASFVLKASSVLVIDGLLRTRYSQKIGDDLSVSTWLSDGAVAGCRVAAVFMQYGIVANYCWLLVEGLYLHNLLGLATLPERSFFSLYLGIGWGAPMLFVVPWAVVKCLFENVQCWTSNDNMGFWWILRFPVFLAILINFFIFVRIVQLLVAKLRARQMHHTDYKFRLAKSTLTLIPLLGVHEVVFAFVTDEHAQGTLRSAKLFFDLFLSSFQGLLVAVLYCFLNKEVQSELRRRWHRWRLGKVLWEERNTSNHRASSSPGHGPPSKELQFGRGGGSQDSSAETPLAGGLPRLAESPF

| EC50 [1] [nM] | EC50 [2] [nM] | also measured | SMILES |
| --- | --- | --- | --- |
| 46.1 |  |  | CCCCCCCCCCCCCCCC(=O)NCCCC[C@H](NC(=O)[C@H](CC(=O)O)NC(=O)[C@H](CO)NC(=O)[C@@H](NC(=O)[C@H](Cc1ccccc1)NC(=O)[C@@H](NC(=O)CNC(=O)[C@H](CCC(=O)O)NC(=O)C(C)(C)NC(=O)[C@@H](N)Cc1c[nH]cn1)[C@@H](C)O)[C@@H](C)O)C(=O)N[C@@H](CO)C(=O)N[C@@H](CCCCN)C(=O)N[C@@H](Cc1ccc(O)cc1)C(=O)N[C@@H](CC(C)C)C(=O)N[C@@H](CC(=O)O)C(=O)N[C@@H](CCC(=O)O)C(=O)N[C@@H](CCC(N)=O)C(=O)N[C@@H](C)C(=O)N[C@@H](C)C(=O)N[C@@H](CCCCN)C(=O)N[C@@H](CCC(=O)O)C(=O)N[C@@H](Cc1ccccc1)C(=O)N[C@H](C(=O)N[C@@H](C)C(=O)N[C@@H](Cc1c[nH]c2ccccc12)C(=O)N[C@@H](CC(C)C)C(=O)N[C@@H](CCSC)C(=O)N[C@@H](CC(N)=O)C(=O)N[C@H](C(N)=O)[C@@H](C)O)[C@@H](C)CC [compound 647] (H-H[Aib]EGTFTSDK(Palmitoyl)SKYLDEQAAKEFIAWLMNT-NH2; N-terminus assumed) |
|  |  | EC50 (read-out: EC50 at Glucagon Receptor, Table 22): 0.653 ± 0.285 nM | CSCC[C@H](NC(=O)[C@H](CC(C)C)NC(=O)[C@H](Cc1c[nH]c2ccccc12)NC(=O)[C@H](CCC(N)=O)NC(=O)[C@@H](NC(=O)[C@H](Cc1ccccc1)NC(=O)[C@H](CC(=O)O)NC(=O)[C@H](CCC(N)=O)NC(=O)[C@H](C)NC(=O)[C@H](CCCNC(=N)N)NC(=O)[C@H](CCCNC(=N)N)NC(=O)C(C)(C)NC(=O)[C@H](CC(=O)O)NC(=O)[C@H](CC(C)C)NC(=O)[C@H](Cc1ccc(O)cc1)NC(=O)[C@H](CCCCN)NC(=O)[C@H](CO)NC(=O)[C@H](Cc1ccc(O)cc1)NC(=O)[C@H](CC(=O)O)NC(=O)[C@H](CO)NC(=O)[C@@H](NC(=O)[C@H](Cc1ccccc1)NC(=O)[C@@H](NC(=O)CNC(=O)[C@H](CCC(N)=O)NC(=O)C(C)(C)NC(=O)[C@@H](N)Cc1c[nH]cn1)[C@@H](C)O)[C@@H](C)O)C(C)C)C(=O)N[C@@H](CC(N)=O)C(=O)N[C@H](C(N)=O)[C@@H](C)O [Peptide 26] (H-H[Aib]QGTFTSDYSKYLD[Aib]RRAQDFVQWLMNT-NH2; N-terminus assumed) |
|  | 0.044 |  | CCCCCCCCCCCCCC(=O)NCCCC[C@H](NC(=O)[C@H](CC(=O)O)NC(=O)[C@H](CO)NC(=O)[C@@H](NC(=O)[C@H](Cc1ccccc1)NC(=O)[C@@H](NC(=O)CNC(=O)[C@H](CCC(N)=O)NC(=O)C(C)(C)NC(=O)[C@@H](N)Cc1c[nH]cn1)[C@@H](C)O)[C@@H](C)O)C(=O)N[C@@H](CO)C(=O)N[C@@H](CCCCN)C(=O)N[C@@H](Cc1ccc(O)cc1)C(=O)N[C@@H](CC(C)C)C(=O)N[C@@H](CC(=O)O)C(=O)NC(C)(C)C(=O)N[C@@H](CCCNC(=N)N)C(=O)N[C@@H](CCCNC(=N)N)C(=O)N[C@@H](C)C(=O)N[C@@H](CCC(N)=O)C(=O)N[C@@H](CC(=O)O)C(=O)N[C@@H](Cc1ccccc1)C(=O)N[C@H](C(=O)N[C@@H](CCC(N)=O)C(=O)N[C@@H](Cc1c[nH]c2ccccc12)C(=O)N[C@@H](CC(C)C)C(=O)N[C@@H](CCSC)C(=O)N[C@@H](CC(N)=O)C(=O)N[C@H](C(N)=O)[C@@H](C)O)C(C)C [AIB2, AIB16, K10(C14) Gluc Amide] |
|  |  | EC50 [3]: 0.313 nM; EC50 [4]: 0.761 nM | CCCCCCCCCCCCCCCC(=O)NCCCC[C@H](NC(=O)[C@H](CC(=O)O)NC(=O)[C@H](CO)NC(=O)[C@@H](NC(=O)[C@H](Cc1ccccc1)NC(=O)[C@@H](NC(=O)CNC(=O)[C@H](CCC(N)=O)NC(=O)C(C)(C)NC(=O)[C@@H](N)Cc1c[nH]cn1)[C@@H](C)O)[C@@H](C)O)C(=O)N[C@@H](CO)C(=O)N[C@@H](CCCCN)C(=O)N[C@@H](Cc1ccc(O)cc1)C(=O)N[C@@H](CC(C)C)C(=O)N[C@@H](CC(=O)O)C(=O)NC(C)(C)C(=O)N[C@@H](CCCNC(=N)N)C(=O)N[C@@H](CCCNC(=N)N)C(=O)N[C@@H](C)C(=O)N[C@@H](CCC(N)=O)C(=O)N[C@@H](CC(=O)O)C(=O)N[C@@H](Cc1ccccc1)C(=O)N[C@H](C(=O)N[C@@H](CCC(N)=O)C(=O)N[C@@H](Cc1c[nH]c2ccccc12)C(=O)N[C@@H](CC(C)C)C(=O)N[C@@H](CCSC)C(=O)N[C@@H](CC(N)=O)C(=O)N[C@H](C(=O)N[C@@H](CCCCN)C(N)=O)[C@@H](C)O)C(C)C |
| 0.003 |  |  | CCCCCCCCCCCCCCCC(=O)N[C@@H](CCC(=O)N[C@@H](CCC(=O)NCCCC[C@H](NC(=O)[C@H](CC(=O)O)NC(=O)[C@H](CO)NC(=O)[C@@H](NC(=O)[C@H](Cc1ccccc1)NC(=O)[C@@H](NC(=O)CNC(=O)[C@H](CCC(N)=O)NC(=O)C(C)(C)NC(=O)[C@@H](N)Cc1c[nH]cn1)[C@@H](C)O)[C@@H](C)O)C(=O)N[C@@H](CO)C(=O)N[C@@H](CCCCN)C(=O)N[C@@H](Cc1ccc(O)cc1)C(=O)N[C@@H](CC(C)C)C(=O)N[C@@H](CC(=O)O)C(=O)NC(C)(C)C(=O)N[C@@H](CCCNC(=N)N)C(=O)N[C@@H](C)C(=O)N[C@@H](C)C(=O)N[C@@H](CCC(N)=O)C(=O)N[C@@H](CC(=O)O)C(=O)N[C@@H](Cc1ccccc1)C(=O)N[C@H](C(=O)N[C@@H](CCC(N)=O)C(=O)N[C@@H](Cc1c[nH]c2ccccc12)C(=O)N[C@@H](CC(C)C)C(=O)N[C@@H](CCSC)C(=O)N[C@@H](CC(=O)O)C(=O)N[C@H](C(N)=O)[C@@H](C)O)C(C)C)C(=O)O)C(=O)O [compound 655] (H-H[Aib]QGTFTSDK([γGlu-γGlu-Palmitoyl])SKYLD[Aib]RAAQDFVQWLMDT-NH2; N-terminus assumed) |
|  | 0.016 |  | CCCCCCCCCCCCCCCCCC(=O)NCCCC[C@H](NC(=O)[C@H](CC(=O)O)NC(=O)[C@H](CO)NC(=O)[C@@H](NC(=O)[C@H](Cc1ccccc1)NC(=O)[C@@H](NC(=O)CNC(=O)[C@H](CCC(N)=O)NC(=O)C(C)(C)NC(=O)[C@@H](N)Cc1c[nH]cn1)[C@@H](C)O)[C@@H](C)O)C(=O)N[C@@H](CO)C(=O)N[C@@H](CCCCN)C(=O)N[C@@H](Cc1ccc(O)cc1)C(=O)N[C@@H](CC(C)C)C(=O)N[C@@H](CC(=O)O)C(=O)NC(C)(C)C(=O)N[C@@H](CCCNC(=N)N)C(=O)N[C@@H](CCCNC(=N)N)C(=O)N[C@@H](C)C(=O)N[C@@H](CCC(N)=O)C(=O)N[C@@H](CC(=O)O)C(=O)N[C@@H](Cc1ccccc1)C(=O)N[C@H](C(=O)N[C@@H](CCC(N)=O)C(=O)N[C@@H](Cc1c[nH]c2ccccc12)C(=O)N[C@@H](CC(C)C)C(=O)N[C@@H](CCSC)C(=O)N[C@@H](CC(N)=O)C(=O)N[C@H](C(N)=O)[C@@H](C)O)C(C)C [AIB2, AIB16, K10(C18) Gluc Amide] |
| 0.008 |  |  | CCCCCCCCCCCCCCCC(=O)N[C@@H](CCC(=O)N[C@@H](CCC(=O)NCCCC[C@H](NC(=O)[C@H](CC(=O)O)NC(=O)[C@H](CO)NC(=O)[C@@H](NC(=O)[C@H](Cc1ccccc1)NC(=O)[C@@H](NC(=O)CNC(=O)[C@H](CCC(N)=O)NC(=O)[C@@H](CO)NC(=O)[C@@H](N)Cc1c[nH]cn1)[C@@H](C)O)[C@@H](C)O)C(=O)N[C@@H](CO)C(=O)N[C@@H](CCCCN)C(=O)N[C@@H](Cc1ccc(O)cc1)C(=O)N[C@@H](CC(C)C)C(=O)N[C@@H](CC(=O)O)C(=O)N[C@@H](CCC(=O)O)C(=O)N[C@@H](CCC(N)=O)C(=O)N[C@@H](C)C(=O)N[C@@H](C)C(=O)N[C@@H](CCCCN)C(=O)N[C@@H](CCC(=O)O)C(=O)N[C@@H](Cc1ccccc1)C(=O)N[C@H](C(=O)N[C@@H](C)C(=O)N[C@@H](Cc1c[nH]c2ccccc12)C(=O)N[C@@H](CC(C)C)C(=O)N[C@@H](CCSC)C(=O)N[C@@H](CC(N)=O)C(=O)N[C@H](C(N)=O)[C@@H](C)O)[C@@H](C)CC)C(=O)O)C(=O)O [compound 644] |
|  | 0.02 | EC50 [3]: 0.023 nM; EC50 [4]: 0.052 nM | CCCCCCCCCCCCCCCC(=O)NCCCC[C@H](NC(=O)[C@H](CC(=O)O)NC(=O)[C@H](CO)NC(=O)[C@@H](NC(=O)[C@H](Cc1ccccc1)NC(=O)[C@@H](NC(=O)CNC(=O)[C@H](CCC(N)=O)NC(=O)C(C)(C)NC(=O)[C@@H](N)Cc1c[nH]cn1)[C@@H](C)O)[C@@H](C)O)C(=O)N[C@@H](CO)C(=O)N[C@@H](CCCCN)C(=O)N[C@@H](Cc1ccc(O)cc1)C(=O)N[C@@H](CC(C)C)C(=O)N[C@@H](CC(=O)O)C(=O)NC(C)(C)C(=O)N[C@@H](CCCNC(=N)N)C(=O)N[C@@H](CCCNC(=N)N)C(=O)N[C@@H](C)C(=O)N[C@@H](CCC(N)=O)C(=O)N[C@@H](CC(=O)O)C(=O)N[C@@H](Cc1ccccc1)C(=O)N[C@H](C(=O)N[C@@H](CCC(N)=O)C(=O)N[C@@H](Cc1c[nH]c2ccccc12)C(=O)N[C@@H](CC(C)C)C(=O)N[C@@H](CCSC)C(=O)N[C@@H](CC(N)=O)C(=O)N[C@H](C(N)=O)[C@@H](C)O)C(C)C [AIB2, AIB16, K10(C16) Gluc Amide] |
| 2.92 |  |  | CCCCCCCCCCCCCCCC(=O)N[C@@H](CCC(=O)N[C@@H](CCC(=O)NCCCC[C@H](NC(=O)[C@H](CC(=O)O)NC(=O)[C@H](CO)NC(=O)[C@@H](NC(=O)[C@H](Cc1ccccc1)NC(=O)[C@@H](NC(=O)CNC(=O)[C@H](CCC(=O)O)NC(=O)C(C)(C)NC(=O)[C@@H](N)Cc1c[nH]cn1)[C@@H](C)O)[C@@H](C)O)C(=O)N[C@@H](CO)C(=O)N[C@@H](CCCCN)C(=O)N[C@@H](Cc1ccc(O)cc1)C(=O)N[C@@H](CC(C)C)C(=O)N[C@@H](CC(=O)O)C(=O)N[C@@H](CCC(=O)O)C(=O)N[C@@H](CCC(N)=O)C(=O)N[C@@H](C)C(=O)N[C@@H](C)C(=O)N[C@@H](CCCCN)C(=O)N[C@@H](CCC(=O)O)C(=O)N[C@@H](Cc1ccccc1)C(=O)N[C@H](C(=O)N[C@@H](C)C(=O)N[C@@H](Cc1c[nH]c2ccccc12)C(=O)N[C@@H](CC(C)C)C(=O)N[C@@H](CCSC)C(=O)N[C@@H](CC(N)=O)C(=O)N[C@H](C(N)=O)[C@@H](C)O)[C@@H](C)CC)C(=O)O)C(=O)O [compound 648] (H-H[Aib]EGTFTSDK([γGlu-γGlu-Palmitoyl])SKYLDEQAAKEFIAWLMNT-NH2; N-terminus assumed) |
